In ChEMBL document CHEMBL1127794, “Structure-activity relationships of 1,3-dialkylxanthine derivatives at rat A3 adenosine receptors” (J Med Chem, 1994):

What was measured:
[1] = biological target: T1, Adenosine receptor A3 (Rattus norvegicus) (UniProt P28647); experiment: Tested for the binding affinity, for displacement of [125I]AB-MECA in membranes of CHO cells stably transfected with the rat A3-cDNA at the 10e-5 concentration (M); assay type: cell membranes
T1 sequence (whole entry): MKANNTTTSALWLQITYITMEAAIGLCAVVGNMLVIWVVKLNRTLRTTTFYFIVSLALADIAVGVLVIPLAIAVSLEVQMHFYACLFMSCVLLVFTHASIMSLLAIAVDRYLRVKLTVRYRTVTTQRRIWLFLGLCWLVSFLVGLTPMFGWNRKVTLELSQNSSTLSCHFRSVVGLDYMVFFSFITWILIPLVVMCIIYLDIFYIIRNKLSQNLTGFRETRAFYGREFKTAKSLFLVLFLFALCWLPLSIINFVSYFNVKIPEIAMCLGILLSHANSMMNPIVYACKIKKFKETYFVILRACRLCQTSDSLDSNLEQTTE

[2] = biological target: Adenosine receptors; A1 & A3 (Rattus norvegicus) (UniProt P25099+P28647); experiment: Ratio of selectivity for A3 and A1 receptors at rat brain
[3] = biological target: Adenosine receptor A2a (Rattus norvegicus) (UniProt P30543); experiment: Tested for the binding affinity, for displacement of [3H]-CGS- 21680 in A2a receptors of rat striatal membrane at 10e-5 concentration (M)
Adenosine receptor A2a (Rattus norvegicus), sequence (P30543 whole entry): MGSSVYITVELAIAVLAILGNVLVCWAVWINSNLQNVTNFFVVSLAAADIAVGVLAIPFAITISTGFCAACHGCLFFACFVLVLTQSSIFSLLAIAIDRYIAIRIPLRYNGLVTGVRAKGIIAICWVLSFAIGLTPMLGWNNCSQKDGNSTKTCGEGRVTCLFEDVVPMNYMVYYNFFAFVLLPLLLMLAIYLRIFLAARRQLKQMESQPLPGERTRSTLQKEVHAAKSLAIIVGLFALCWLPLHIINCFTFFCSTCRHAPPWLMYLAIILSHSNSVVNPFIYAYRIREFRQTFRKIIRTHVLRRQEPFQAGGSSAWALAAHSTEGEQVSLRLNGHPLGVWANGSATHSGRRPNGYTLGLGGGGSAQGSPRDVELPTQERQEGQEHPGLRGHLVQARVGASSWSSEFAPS

[4] = biological target: T2, Adenosine receptor A1 (Rattus norvegicus, UniProt P25099)
T2 sequence (P25099 whole entry): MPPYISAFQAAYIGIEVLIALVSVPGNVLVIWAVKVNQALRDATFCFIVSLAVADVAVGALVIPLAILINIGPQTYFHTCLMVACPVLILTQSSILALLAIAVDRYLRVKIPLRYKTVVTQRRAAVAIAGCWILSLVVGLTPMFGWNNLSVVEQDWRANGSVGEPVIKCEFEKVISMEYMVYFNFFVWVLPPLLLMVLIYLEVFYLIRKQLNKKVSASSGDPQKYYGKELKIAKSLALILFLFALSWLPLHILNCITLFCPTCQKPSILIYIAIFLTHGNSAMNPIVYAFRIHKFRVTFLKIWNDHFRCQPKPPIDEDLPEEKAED
Description: Displacement of [3H]PIA from adenosine A1 receptors of rat brain membrane

[5] = biological target: Adenosine receptor A2a (Rattus norvegicus, UniProt P30543)
Adenosine receptor A2a, sequence (P30543 whole entry): as the sequence (P30543 whole entry) above
Description: Displacement of [3H]-CGS- 21680 from adenosine A2a receptors of rat striatal membrane

[6] = biological target: T3, Adenosine receptor A3 (Rattus norvegicus, UniProt P28647); experiment: Displacement of [125I]AB-MECA from membranes of CHO cells stably transfected with the rat adenosine A3 receptor cDNA; assay type: cell membranes
T3 sequence (P28647 whole entry): T1 sequence (whole entry)

[7] = biological target: T1, Adenosine receptor A3 (Rattus norvegicus); experiment: Tested for the binding affinity, for displacement of [125I]AB-MECA in membranes of CHO cells stably transfected with the rat A3-cDNA at the 10e-4 concentration (M); assay type: cell membranes
[8] = biological target: T1, Adenosine receptor A3 (Rattus norvegicus); experiment: Tested for the binding affinity, for displacement of [125I]AB-MECA in membranes of CHO cells stably transfected with the rat A3-cDNA at the 3*10e-5 concentration (M); assay type: cell membranes
[9] = biological target: Adenosine receptor A2a (Rattus norvegicus) (UniProt P30543); experiment: Tested for the binding affinity, for displacement of [3H]-CGS- 21680 in A2a receptors of rat striatal membrane at 10e-4 concentration (M)
[10] = biological target: T4, Adenosine receptor A1 (Rattus norvegicus) (UniProt P25099); experiment: Tested for the binding affinity, for displacement of [3H]PIA in A1 receptors of rat brain membrane at 10e-4 concentration (M); assay type: cell membranes
T4 sequence (whole entry): T2 sequence (P25099 whole entry)

| SMILES | Ratio [2] | Ki [4] | Ki [5] | Ki [6] | other results |
| --- | --- | --- | --- | --- | --- |
| CCCCCCn1c(=O)c2nc[nH]c2n(CCCCCC)c1=O | > 10 |  |  |  | inhibition [1]: 9.2%; inhibition [3]: 14.3% |
| CCCCn1c(=O)c2nc(/C=C/C(=O)O)[nH]c2n(CCCC)c1=O | 22 | 3.37 µM | 16.5 µM | 73.7 µM |  |
| Cn1c(=O)c2c(nc(/C=C/C(=O)O)n2C)n(C)c1=O | < 1 |  |  | 130 µM |  |
| CCCn1c(=O)c2[nH]c(-c3ccc(OCC(=O)O)cc3)nc2n(CCC)c1=S |  |  | 0.226 µM | 6.77 µM |  |
| CCCn1c(=O)c2[nH]c(-c3ccc(OCC(=O)NCCN)cc3)nc2n(CCC)c1=O [XANTHINE AMINE CONGENER] |  |  |  | 29 µM |  |
| CCCn1c(=O)c2nc(-c3ccc(OCC(=O)O)cc3)[nH]c2n(Cc2ccc(N)c(I)c2)c1=O | 32 | 0.037 µM | 0.7 µM | 1.17 µM |  |
| CCCn1c(=O)c2[nH]c(C3CCCC3)nc2n(CCC)c1=O [1,3-DIPROPYL-8-CYCLOPENTYLXANTHINE [DPCPX]] |  |  |  | 5.29 µM |  |
| Cn1c(=O)c2c(nc(/C=C/c3cccc(Cl)c3)n2C)n(C)c1=O |  |  |  |  | inhibition [1]: 4.2% |
| CCCn1c(=O)c2[nH]c(-c3ccc(OCC(=O)NCCNC(=O)CNCC(=O)O)cc3)nc2n(CCC)c1=O |  | 0.036 µM | 0.157 µM | 98 µM |  |
| CCCn1c(=O)c2nc(-c3ccc(OCC(=O)NCC(=O)O)cc3)[nH]c2n(CCC)c1=O | 800 | 0.073 µM | 0.455 µM | 58.5 µM |  |
| CCCn1c(=O)c2nc(-c3ccc(/C=C/C(=O)O)cc3)[nH]c2n(CCC)c1=O |  |  | 0.8 µM |  |  |
| CCCn1c(=O)c2nc(-c3ccc(OCC(=O)NCCNC(=O)CCC(=O)O)cc3)[nH]c2n(CCC)c1=O | 520 | 0.078 µM | 0.252 µM | 40.6 µM |  |
| CCCn1c(=O)c2nc(-c3ccc(OCC(=O)NCCNC(=O)CN(CC(=O)O)C(=O)CCC(=O)O)cc3)[nH]c2n(CCC)c1=O | 35 | 2.86 µM | 9.22 µM | 99.9 µM |  |
| Cn1c(=O)c2c(nc(/C=C/c3cccc(NC(=O)CCC(=O)O)c3)n2C)n(C)c1=O | 9.2 | 20.5 µM | 0.0129 µM | 189 µM |  |
| CCCCn1c(=O)c2[nH]c(CCCCC(=O)O)nc2n(CCCC)c1=O |  | 5.27 µM | 20 µM |  |  |
| CCCn1c(=O)c2nc(-c3ccc(C(=O)O)cc3)[nH]c2n(CCC)c1=O | 230 |  | 0.637 µM | 45.1 µM |  |
| CCCCn1c(=O)c2c(nc(/C=C/C(=O)O)n2C)n(CCCC)c1=O | 21 | 5.91 µM | 23.2 µM | 127 µM |  |
| Cn1c(=O)c2nc(CCCC(=O)O)[nH]c2n(C)c1=S | 1.6 | 5.7 µM | 67.8 µM | 9.36 µM |  |
| CCCn1c(=O)c2nc(-c3ccc(OCC(=O)NCCNC(=O)CNCC(=O)O)cc3)[nH]c2n(CCC)c1=O | 2700 |  |  |  |  |
| CCCCn1c(=O)c2nc(-c3ccc(OCC(=O)O)cc3)[nH]c2n(CCCC)c1=O | 640 |  |  |  |  |

| SMILES | Ratio [2] | Ki [4] | Ki [5] | Ki [6] | other results |
| --- | --- | --- | --- | --- | --- |
| O=c1c2[nH]cnc2n(Cc2ccccc2)c(=O)n1Cc1ccccc1 | > 10 |  |  |  | inhibition [1]: 20.3%; inhibition [3]: 3.6% |
| CCCn1c(=O)c2nc(-c3ccc(OCC(=O)NCCNC(=O)CN(CC(=O)O)C(=O)OCC4c5ccccc5-c5ccccc54)cc3)[nH]c2n(CCC)c1=O | 1100 |  |  | 21.7 µM |  |
| Cn1c(=O)c2[nH]c(CCCC(=O)O)nc2n(C)c1=O |  |  |  | 93.4 µM |  |
| CCCn1c(=O)c2nc(-c3ccc(S(=O)(=O)O)cc3)[nH]c2n(CCC)c1=O | 640 |  |  |  |  |
| CCCCn1c(=O)c2nc[nH]c2n(Cc2ccccc2)c1=O | 110 | 0.668 µM | 1.2 µM | 74.2 µM |  |
| CCCCn1c(=O)c2nc[nH]c2n(CCCC)c1=O | 290 |  |  |  |  |
| Cn1c(=O)c2c(ncn2Cc2ccccc2)n(C)c1=O | > 10 |  | 46 µM |  | inhibition [7]: 29.7% |
| CCCCn1c(=O)c2nc(CCCCC(=O)O)[nH]c2n(CCCC)c1=O |  |  |  |  | inhibition [8]: 13% |
| Cn1c(=O)c2c(ncn2C)n(C)c1=O |  |  |  |  | inhibition [7]: 30.1% |
| Cn1c(=O)c2c(nc(/C=C/c3cccc(NC(=O)CCCC(=O)O)c3)n2C)n(C)c1=O | 13 | 22.3 µM | 0.0099 µM | 289 µM |  |
| C=CCn1c(=O)c2nc(-c3ccc(OCC(=O)O)cc3)[nH]c2n(CC=C)c1=O | 230 |  |  |  |  |
| CCCCn1c(=O)c2nc(CCCC(=O)O)[nH]c2n(CCCC)c1=O | 9.4 |  | 113 µM | 133 µM |  |
| CCCCn1c(=O)c2c(nc(/C=C/C(=O)OC)n2C)n(CCCC)c1=O |  | 0.793 µM | 5.85 µM |  |  |
| Cn1c(=O)c2nc(CCCC(=O)O)[nH]c2n(C)c1=O | < 1 |  |  |  | inhibition [9]: 26%; inhibition [10]: 0% |
| CCCCn1c(=O)c2nc(CCC(=O)O)[nH]c2n(CCCC)c1=O | 18 | 7.11 µM | 71.7 µM | 129 µM |  |
| CCCn1c(=O)c2nc(-c3ccc(OCC(=O)O)cc3)[nH]c2n(CCC)c1=O | 1300 |  |  |  |  |
| CCCCn1c(=O)c2[nH]cnc2n(CCCC)c1=O |  | 0.5 µM | 29.3 µM |  |  |
| Cn1c(=O)c2c(nc(/C=C/c3cccc(NC(=O)CCCCC(=O)O)c3)n2C)n(C)c1=O | 36 | 6.51 µM | 0.00722 µM | 234 µM |  |
| CCCn1c(=O)c2[nH]c(-c3ccc(S(=O)(=O)O)cc3)nc2n(CCC)c1=O |  |  |  | 90.1 µM |  |
| CCCn1c(=O)c2nc(-c3ccc(OCC(=O)O)cc3)[nH]c2n(CCC)c1=S | 126 |  |  |  |  |
